# Earlier results in patent publication US10357535B2, “Daptomycin formulations and uses thereof” (priority 2012, dated 2019).
# How the values were obtained:
# MSSA = conditions: in less than one hour
# MRSA = conditions: in less than one hour
smiles,measurement,setting,value
"CCCCCCCCCC(=O)NC(Cc1c[nH]c2ccccc12)C(=O)NC(CC(N)=O)C(=O)NC(CC(=O)O)C(=O)NC1C(=O)NCC(=O)NC(CCCN)C(=O)NC(CC(=O)O)C(=O)NC(C)C(=O)NC(CC(=O)O)C(=O)NCC(=O)NC(CO)C(=O)NC(C(C)CC(=O)O)C(=O)NC(CC(=O)c2ccccc2N)C(=O)OC1C (centres unmarked) [daptomycin, Daptomycin]",bacteria dead,MSSA,greater than 99.9%
same,bacteria dead,MRSA,greater than 99.9%
